# Data from patent US20010055541A1, “Porous material disinfection method” (priority 2000, published 2001).
# Assays:
# Escherichia coli = Escherichia coli in 19 minutes from raw waste water; cited from earlier work
# Candida tropicalis = Candida tropicalis in 0.30 minutes from ozone-demand free water; cited from earlier work
# Naegleria gruberi = Naegleria gruberi in 1.1 minutes from ozone-demand free phosphate buffer solution; cited from earlier work
# Poliovirus type I = Poliovirus type I in 9 minutes from activated sludge effluent; cited from earlier work
# [1] = test system: Bacillus subtilis v. globigii spores; settings: within 1.5-2 minutes, water purged with 3% ozone by weight; cited from earlier work
# [2] = test system: human immunodeficiency virus (HIV); settings: non-toxic concentration of 4 μg ozone per ml of serum; cited from earlier work
# [3] = test system: Bacillus stearothermophilus (ATCC 7953); test: Resistance of six organisms to sterilization with ozone gas (Example I); settings: six organisms compared, cell density 10^4-10^7, minimum of three runs
smiles,measurement,setting,value
O=[O+][O-] [ozone],ozone concentration reported for a 99% reduction,Escherichia coli,2.2 mg/L
same,ozone concentration reported for a 99% reduction,Candida tropicalis,0.02 mg/L
same,ozone concentration reported for a 99% reduction,Naegleria gruberi,1.2 mg/L
same,ozone concentration reported for a 99% reduction,Poliovirus type I,0.2 mg/L
same,log reduction of bacterial spores,[1],four-log reduction
same,log reduction in the infectious titer,[2],six-log reduction
same,resistance of organism to ozone exposure (ability to maintain viability),[3],most resistant organism
